Drawing on the supplement of paper PMC10307832, this text covers relative viability for 10 cell lines.

Common to all, as to test: relative viability (nuclei count vs DMSO), 5 days (fraction); higher = more cells survive
Compound in experiment [1]: CC1=CC(=NN1)NC2=CC(=NC(=N2)/C=C/C3=CC=CC=C3)N4CCN(CC4)C + C[C@]1(O)C[C@@H](c2nc(-c3ccc4ccc(-c5ccccc5)nc4c3)c3c(N)nccn32)C1 [Linsitinib] (partner 1 µM)
In a few lines: (§1)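 Relative viability is defined as nuclei in treated wells over nuclei in vehicle wells. Duplicate plates were run and medians reported. Lung cancer cell lines in 1536-well plates were dosed by pin tool one day after seeding, with one drug or with a fixed anchor-drug dose plus five library-drug doses (not always all listed) in √10 steps, and nuclei were counted after 5 days.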

Compound in experiment [2]: CC1=CC(=NN1)NC2=CC(=NC(=N2)/C=C/C3=CC=CC=C3)N4CCN(CC4)C + COc1cccc2cc(-c3nc([C@H]4CC[C@H](C(=O)O)CC4)n4ncnc(N)c34)[nH]c12 [OSI-027] (partner 0.5 µM)
A digest of the protocol: as §1

Compound in experiment [3]: CC(C)C[C@H](NC(=O)[C@H](Cc1ccccc1)NC(=O)c1cnccn1)B(O)O [Bortezomib] + COc1cc2c(Oc3ccc(NC(=O)C4(C(=O)Nc5ccc(F)cc5)CC4)cc3F)ccnc2cc1OCCCN1CCOCC1 [Foretinib] (partner 0.25 µM)
A digest of the protocol: as §1

NCI-H1944: the relative viability in experiment [1] (first compound 0.08 µM) came to 1.21; in experiment [1] (first compound 0.253 µM) it was 1.4; in experiment [1] (first compound 0.8 µM) it was 1.23; in experiment [1] (first compound 2.53 µM) it was 0.86; in experiment [1] (first compound 8 µM) it was 0.348; in experiment [2] (first compound 0.08 µM), 0.437. In addition, the relative viability in experiment [2] (first compound 0.253 µM) was 0.4; in experiment [2] (first compound 0.8 µM), 0.394; in experiment [2] (first compound 2.53 µM) it was 0.272; in experiment [2] (first compound 8 µM), 0.145; in experiment [3] (first compound 0.0002 µM) it was 0.791; in experiment [3] (first compound 0.000632 µM), 0.818. Besides, the relative viability in experiment [3] (first compound 0.002 µM) was determined as 0.87; in experiment [3] (first compound 0.006325 µM) it was 0.724; in experiment [3] (first compound 0.02 µM), 0.199.
In the case of NCI-H1975, the relative viability in experiment [1] (first compound 0.08 µM) was found to be 0.904; in experiment [1] (first compound 0.253 µM), 0.951; in experiment [1] (first compound 0.8 µM), 0.722; in experiment [1] (first compound 2.53 µM) it was 0.203; in experiment [1] (first compound 8 µM) it was 0.127; in experiment [2] (first compound 0.08 µM), 0.676. Also, the relative viability in experiment [2] (first compound 0.253 µM) was 0.746; in experiment [2] (first compound 0.8 µM) it was 0.629; in experiment [2] (first compound 2.53 µM), 0.15; in experiment [2] (first compound 8 µM) it was 0.0749; in experiment [3] (first compound 0.0002 µM), 0.927; in experiment [3] (first compound 0.000632 µM), 0.926. Further, the relative viability in experiment [3] (first compound 0.002 µM) was 0.132; in experiment [3] (first compound 0.006325 µM), 0.104; in experiment [3] (first compound 0.02 µM) it was 0.107.
For the cell line NCI-H1993, the relative viability worked out at 0.842 in experiment [1] (first compound 0.08 µM); 0.617 in experiment [1] (first compound 0.8 µM); 0.594 in experiment [1] (first compound 2.53 µM); 0.55 in experiment [1] (first compound 8 µM); 0.514 in experiment [2] (first compound 0.08 µM); 0.484 in experiment [2] (first compound 0.253 µM). For the same cell line, the relative viability in experiment [2] (first compound 0.8 µM) came out at 0.478; in experiment [2] (first compound 2.53 µM), 0.457; in experiment [2] (first compound 8 µM), 0.414; in experiment [3] (first compound 0.0002 µM), 0.802; in experiment [3] (first compound 0.000632 µM), 0.755; in experiment [3] (first compound 0.002 µM), 0.912. Also, the relative viability worked out at 0.648 in experiment [3] (first compound 0.006325 µM) and 0.479 in experiment [3] (first compound 0.02 µM).
For NCI-H2009, the relative viability is 1.08 in experiment [1] (first compound 0.08 µM); 1.16 in experiment [1] (first compound 0.253 µM); 1.21 in experiment [1] (first compound 0.8 µM); 1.05 in experiment [1] (first compound 2.53 µM); 0.155 in experiment [1] (first compound 8 µM); 0.615 in experiment [2] (first compound 0.08 µM). Further, the relative viability in experiment [2] (first compound 0.253 µM) came to 0.672; in experiment [2] (first compound 0.8 µM) it was 0.638; in experiment [2] (first compound 2.53 µM), 0.227; in experiment [2] (first compound 8 µM), 0.111; in experiment [3] (first compound 0.0002 µM) it was 1.14; in experiment [3] (first compound 0.000632 µM) it was 1.21. Further, the results for the relative viability in experiment [3] (first compound 0.002 µM), in experiment [3] (first compound 0.006325 µM) and in experiment [3] (first compound 0.02 µM) were 1.23, 0.237 and 0.0866, respectively.
For NCI-H2023, the relative viability in experiment [1] (first compound 0.08 µM) turned out to be 0.63; in experiment [1] (first compound 0.253 µM), 0.725; in experiment [1] (first compound 0.8 µM), 0.581; in experiment [1] (first compound 2.53 µM) it was 0.382; in experiment [1] (first compound 8 µM), 0.0796; in experiment [2] (first compound 0.08 µM) it was 0.374. Moreover, the relative viability in experiment [2] (first compound 0.253 µM) came out at 0.45; in experiment [2] (first compound 0.8 µM), 0.341; in experiment [2] (first compound 2.53 µM), 0.0653; in experiment [2] (first compound 8 µM) it was 0.041; in experiment [3] (first compound 0.0002 µM), 0.911; in experiment [3] (first compound 0.000632 µM), 0.802. The values for the relative viability in experiment [3] (first compound 0.002 µM), in experiment [3] (first compound 0.006325 µM) and in experiment [3] (first compound 0.02 µM) were 1.06, 0.282 and 0.0757, respectively.
As to NCI-H2085, the relative viability is 0.796 in experiment [1] (first compound 0.08 µM); 0.95 in experiment [1] (first compound 0.253 µM); 0.931 in experiment [1] (first compound 0.8 µM); 0.502 in experiment [1] (first compound 2.53 µM); 0.289 in experiment [1] (first compound 8 µM); 0.728 in experiment [2] (first compound 0.08 µM). Further, the relative viability in experiment [2] (first compound 0.253 µM) came to 0.755; in experiment [2] (first compound 0.8 µM) it was 0.758; in experiment [2] (first compound 2.53 µM), 0.334; in experiment [2] (first compound 8 µM), 0.193; in experiment [3] (first compound 0.0002 µM) it was 1.04; in experiment [3] (first compound 0.000632 µM), 1.08. Moreover, the relative viability is 1.05 in experiment [3] (first compound 0.002 µM), 0.273 in experiment [3] (first compound 0.006325 µM) and 0.199 in experiment [3] (first compound 0.02 µM).
Consider NCI-H2087, for which the relative viability in experiment [1] (first compound 0.08 µM) was 0.982; in experiment [1] (first compound 0.253 µM) it was 0.909; in experiment [1] (first compound 0.8 µM), 0.965; in experiment [1] (first compound 2.53 µM), 0.723; in experiment [1] (first compound 8 µM), 0.203; in experiment [2] (first compound 0.08 µM), 0.622. Further, the relative viability was 0.295 in experiment [2] (first compound 0.253 µM); 0.537 in experiment [2] (first compound 0.8 µM); 0.196 in experiment [2] (first compound 2.53 µM); 0.109 in experiment [2] (first compound 8 µM); 0.972 in experiment [3] (first compound 0.0002 µM); 0.975 in experiment [3] (first compound 0.000632 µM). The relative viability stood at 0.794 in experiment [3] (first compound 0.002 µM), 0.0688 in experiment [3] (first compound 0.006325 µM) and 0.059 in experiment [3] (first compound 0.02 µM).
For the cell line NCI-H2126, the relative viability came out at 0.647 in experiment [1] (first compound 0.08 µM); 0.72 in experiment [1] (first compound 0.253 µM); 0.716 in experiment [1] (first compound 0.8 µM); 0.621 in experiment [1] (first compound 2.53 µM); 0.421 in experiment [1] (first compound 8 µM); 0.74 in experiment [2] (first compound 0.08 µM). The relative viability in experiment [2] (first compound 0.253 µM) turned out to be 0.747; in experiment [2] (first compound 0.8 µM) it was 0.675; in experiment [2] (first compound 2.53 µM) it was 0.596; in experiment [2] (first compound 8 µM) it was 0.37; in experiment [3] (first compound 0.0002 µM), 1.08; in experiment [3] (first compound 0.000632 µM) it was 1.03. The relative viability in experiment [3] (first compound 0.002 µM) was determined as 1.12; in experiment [3] (first compound 0.006325 µM), 1.02; in experiment [3] (first compound 0.02 µM), 0.21.
For the cell line NCI-H2228, the relative viability in experiment [1] (first compound 0.08 µM) is 0.776; in experiment [1] (first compound 0.253 µM), 0.709; in experiment [1] (first compound 0.8 µM) it was 0.506; in experiment [1] (first compound 2.53 µM), 0.154; in experiment [1] (first compound 8 µM), 0.0965; in experiment [2] (first compound 0.08 µM), 0.566. Besides, the relative viability in experiment [2] (first compound 0.253 µM) was found to be 0.595; in experiment [2] (first compound 0.8 µM), 0.557; in experiment [2] (first compound 2.53 µM) it was 0.0751; in experiment [2] (first compound 8 µM), 0.0577; in experiment [3] (first compound 0.0002 µM), 0.957; in experiment [3] (first compound 0.000632 µM) it was 0.962. In addition, the relative viability worked out at 0.595 in experiment [3] (first compound 0.002 µM), 0.0857 in experiment [3] (first compound 0.006325 µM) and 0.0911 in experiment [3] (first compound 0.02 µM).
Consider NCI-H2347, for which the relative viability in experiment [1] (first compound 0.08 µM) was 0.844; in experiment [1] (first compound 0.253 µM), 1.05; in experiment [1] (first compound 0.8 µM) it was 0.99; in experiment [1] (first compound 2.53 µM), 0.93; in experiment [1] (first compound 8 µM), 0.614; in experiment [2] (first compound 0.08 µM) it was 0.37. Besides, the relative viability in experiment [2] (first compound 0.253 µM) stood at 0.431; in experiment [2] (first compound 0.8 µM), 0.465; in experiment [2] (first compound 2.53 µM), 0.347; in experiment [2] (first compound 8 µM), 0.197; in experiment [3] (first compound 0.0002 µM), 0.741; in experiment [3] (first compound 0.000632 µM), 1.3. For the same cell line, the results for the relative viability in experiment [3] (first compound 0.002 µM), in experiment [3] (first compound 0.006325 µM) and in experiment [3] (first compound 0.02 µM) were 1.09, 0.275 and 0.327, respectively.
